The source of these data is ChEMBL document CHEMBL5465560, “Selectivity Literature for EUbOPEN Chemogenomic Library” (2024).

Experiment [1] has as its target T1, Testis-specific serine/threonine-protein kinase 1 (Homo sapiens) (UniProt Q9BXA7).
T1 sequence (whole entry): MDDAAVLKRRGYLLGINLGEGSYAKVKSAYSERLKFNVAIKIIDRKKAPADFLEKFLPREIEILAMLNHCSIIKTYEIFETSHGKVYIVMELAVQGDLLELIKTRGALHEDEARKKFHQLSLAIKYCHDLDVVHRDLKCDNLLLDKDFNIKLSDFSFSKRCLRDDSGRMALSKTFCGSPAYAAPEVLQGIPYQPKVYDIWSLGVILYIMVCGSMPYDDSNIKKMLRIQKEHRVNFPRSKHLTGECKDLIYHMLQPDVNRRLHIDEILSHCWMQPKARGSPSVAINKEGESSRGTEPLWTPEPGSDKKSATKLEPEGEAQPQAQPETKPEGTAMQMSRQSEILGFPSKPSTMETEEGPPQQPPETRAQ
Particulars: at 10 µM.

Experiment [2] has as its target T2, Protein kinase C iota type (Homo sapiens) (UniProt P41743).
T2 sequence (whole entry): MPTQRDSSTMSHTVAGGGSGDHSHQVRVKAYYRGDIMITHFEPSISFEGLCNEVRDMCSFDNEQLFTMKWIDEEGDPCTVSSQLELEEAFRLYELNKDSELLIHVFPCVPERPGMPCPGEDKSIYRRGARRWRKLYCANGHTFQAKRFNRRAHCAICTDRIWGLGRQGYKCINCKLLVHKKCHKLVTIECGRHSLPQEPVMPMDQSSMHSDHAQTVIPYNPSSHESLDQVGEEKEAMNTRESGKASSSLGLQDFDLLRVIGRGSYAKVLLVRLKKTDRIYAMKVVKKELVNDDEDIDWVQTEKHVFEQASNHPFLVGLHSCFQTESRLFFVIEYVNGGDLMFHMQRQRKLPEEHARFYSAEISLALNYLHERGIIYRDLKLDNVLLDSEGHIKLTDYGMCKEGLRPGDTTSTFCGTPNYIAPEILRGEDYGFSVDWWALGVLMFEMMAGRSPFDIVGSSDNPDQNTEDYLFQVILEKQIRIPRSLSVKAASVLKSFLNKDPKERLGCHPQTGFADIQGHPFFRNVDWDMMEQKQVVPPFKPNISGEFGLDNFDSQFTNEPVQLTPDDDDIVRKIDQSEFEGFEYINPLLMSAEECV
The experiment in a line: Selectivity interaction (KinomeScan (DiscoverX)) EUB0001049a PRKCI. The following applies: at 1 µM.

Experiment [3] addresses T3, Cyclin-G-associated kinase (Homo sapiens) (UniProt O14976).
T3 sequence (whole entry): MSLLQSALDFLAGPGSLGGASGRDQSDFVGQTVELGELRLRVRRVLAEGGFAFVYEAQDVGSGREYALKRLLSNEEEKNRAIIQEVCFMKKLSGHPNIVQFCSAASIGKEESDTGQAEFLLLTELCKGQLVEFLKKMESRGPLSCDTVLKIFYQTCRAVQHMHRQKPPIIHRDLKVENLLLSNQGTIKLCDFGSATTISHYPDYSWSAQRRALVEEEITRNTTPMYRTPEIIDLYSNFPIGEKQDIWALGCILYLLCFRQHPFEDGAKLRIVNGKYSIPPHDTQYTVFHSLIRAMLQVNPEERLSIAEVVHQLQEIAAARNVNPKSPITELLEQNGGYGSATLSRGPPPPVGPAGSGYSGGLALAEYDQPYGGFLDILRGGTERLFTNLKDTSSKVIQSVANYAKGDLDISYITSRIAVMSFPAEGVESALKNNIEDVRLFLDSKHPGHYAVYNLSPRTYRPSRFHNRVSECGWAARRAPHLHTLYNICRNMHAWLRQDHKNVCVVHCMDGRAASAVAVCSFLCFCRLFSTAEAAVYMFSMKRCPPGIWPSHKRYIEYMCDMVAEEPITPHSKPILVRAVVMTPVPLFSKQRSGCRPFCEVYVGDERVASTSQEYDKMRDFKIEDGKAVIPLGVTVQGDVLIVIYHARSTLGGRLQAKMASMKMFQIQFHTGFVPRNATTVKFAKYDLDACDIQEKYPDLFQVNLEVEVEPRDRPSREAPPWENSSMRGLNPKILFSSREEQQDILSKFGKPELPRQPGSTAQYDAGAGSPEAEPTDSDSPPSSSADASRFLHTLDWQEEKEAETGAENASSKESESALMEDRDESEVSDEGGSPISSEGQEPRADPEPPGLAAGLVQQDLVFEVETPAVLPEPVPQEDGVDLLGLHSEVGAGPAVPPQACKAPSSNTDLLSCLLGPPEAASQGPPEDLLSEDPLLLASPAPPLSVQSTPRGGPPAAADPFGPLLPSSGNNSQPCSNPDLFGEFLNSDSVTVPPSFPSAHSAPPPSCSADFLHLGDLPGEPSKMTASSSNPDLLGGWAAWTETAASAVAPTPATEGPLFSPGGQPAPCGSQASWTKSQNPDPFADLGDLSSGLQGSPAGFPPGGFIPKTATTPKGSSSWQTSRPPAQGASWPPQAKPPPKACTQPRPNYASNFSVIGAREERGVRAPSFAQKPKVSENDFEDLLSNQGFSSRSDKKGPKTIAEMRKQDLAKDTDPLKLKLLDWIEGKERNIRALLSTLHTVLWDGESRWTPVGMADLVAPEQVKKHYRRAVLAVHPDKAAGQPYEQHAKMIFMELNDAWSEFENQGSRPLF
The experiment in a line: Selectivity interaction (KinomeScan (DiscoverX)) EUB0000618a GAK. The following applies: at 10 µM.

`Cc1cc([C@@H](C)Nc2ccccc2C(=O)O)c2nc(N3CCOCC3)cc(=O)n2c1` [AZD-6482] came in with a % of control in experiment [1] of 100%.

For the compound `COc1cc(Nc2nc(C)cc(-c3cnn4nc(OC)ccc34)n2)cc(C(F)(F)F)c1`, the % of control in experiment [2] is 79%.

Compound `O[C@H]1CC[C@H](Nc2ncc3nc(Nc4c(F)cc(F)cc4F)n([C@H]4CCOC4)c3n2)CC1` registered a % of control in experiment [3] of 13%.
